Test results as given in patent US7893066B2, “Pyridol[2,3-B]pyrazinones for use as stearoyl CoA desaturase inhibitors” (Gilead Palo Alto, Inc., priority 2006, dated 2011).

Molecular target: T1, stearoyl-CoA desaturase (SCD) (Rattus norvegicus, UniProt P07308)
T1 construct: from tissue; host or cells: liver microsomes of male Sprague Dawley rats, with SCD induced by a carbohydrate-rich diet
T1 sequence (P07308 1-358): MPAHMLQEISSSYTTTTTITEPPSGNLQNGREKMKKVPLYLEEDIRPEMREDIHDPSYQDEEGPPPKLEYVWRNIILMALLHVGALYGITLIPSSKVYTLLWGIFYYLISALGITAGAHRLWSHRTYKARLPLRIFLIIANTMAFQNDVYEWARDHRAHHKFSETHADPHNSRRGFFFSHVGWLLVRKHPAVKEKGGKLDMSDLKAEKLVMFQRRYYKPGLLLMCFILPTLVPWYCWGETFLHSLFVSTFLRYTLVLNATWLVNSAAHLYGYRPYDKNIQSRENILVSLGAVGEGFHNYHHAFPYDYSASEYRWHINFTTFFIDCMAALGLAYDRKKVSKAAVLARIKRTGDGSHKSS
Experiment: SCD assay, rat liver microsomes with [3H]stearoyl CoA (adapted from Talamo and Bloch)
Format: biochemical
Details: second table, same SCD assay
Source text: The identification of compounds of the invention as SCD inhibitors was readily accomplished using the SCD enzyme and microsomal assay procedure described in Talamo and Bloch (1969) Analytical Biochemistry 29:300-304.
The rat liver microsomes were collected according to the procedure described in Ozols (1990) Methods Enzm, 182:225.
Male Spraque Dawley Rats were placed on regimented fasting protocol for one week to stimulate SCD enzymatic activity. 48-hour periods were alternated between feeding and fasting to induce and down-regulate SCD activity with SCD activity being induced via carbohydrate rich diet prior to liver perfusion and collection.
The rats were anesthetized with Isoflurane inhalation anesthetic, the liver perfused with cold phosphate buffered saline (PBS), weighed, and chilled in cold homogenization buffer (250 mM sucrose, 10 mM Tris, 1 mM EDTA, pH 7.6.
The livers were finely minced and placed in homogenization tube. 40 mL of homogenization buffer was added to the homogenization tube and the liver homogenized and centrifuged in a pre-chilled SLA-600 TC at 800G rotor for 10 min at 4° C.
Following centrifugation, the supernatant was collected and the pellet removed and discarded. This supernatant was then centrifuged at 10,000G for 35 minutes. Following centrifugation, the supernatant was collected and the pellet discarded. The supernatant was further centrifuged in a pre-chilled 45-Ti rotor at 130,000 G (41,000 RPM) for 90 minutes at 4° C.
The supernatant was then aspirated off and the collected microsomal pellet washed in 25 mL of Glycerol PBS (1×PBS 7.4, 20% Glycerol) and resuspended in 4-5 volumes of Glycerol PBS.
The protein concentration of the microsomal preparation was determined by BCA assay (Pierce) and the microsomes were aliquoted and stored at −80° C.
Biobeads were ground to a smaller size in a mortar and pestle and filtered through 300 μM mesh and then resuspended in 3.6% TCA.
SCD was determined in the desaturase assay buffer. This assay buffer contained 0.1 M Tris buffer, pH 7.2, 2 mM NADH, 4.8 mM ATP, 0.5 mM CoA, 4.8 mM MgCl2, and 0.1% BSA.
1 μl of each compound of Formula I was added to an assay plate by a low volume (0.5-10 μL) multichannel pipette. A DMSO control was also prepared. The microsomes were quickly thawed and added to assay buffer so that a concentration of 1-0.1 mg/ml was achieved (0.5-0.05 mg/ml assay final). 50 μl of the microsome suspension in assay buffer was then added into each well in the compound assay plate, the plate was covered, and the microsomes preincubated with the compounds for 30-60 minutes on the orbital shaker, 50-75 rpm, at room temperature.
After preincubation, the reaction was initiated by the addition of 50 μl of substrate solution (20 μM Stearoyl CoA, [3H]Stearoyl CoA, 74nCi) to the preincubated microsomes/compound suspensions in MilliQ (Millipore) H2O. The reaction mixtures were then incubated for 45 minutes on the orbital shaker at 50-75 rpm at room temperature.
The reaction was terminated by the addition of 10 μl of 21% trichloroacetic acid (TCA) to the reaction mixture followed incubation on the orbital shaker for 30 minutes at 50-75 rpm at room temperature followed by centrifugation for 5 minutes at 3700 rpm.
50 μl of a 6% Bio-Bead suspension in H2O was added to the reaction mixture and the assay plate was sealed. The Bio-Bead mixture was incubated on the orbital shaker for 1 to 24 hours, 100-150 rpm at room temperature, and then the mixture was centrifuged at 2000g for 5 minutes to pellet the Bio-Beads.
25 μl of the supernatant was harvested from each well and transferred to a detection plate. 100 μl of OptiPhase SuperMix scinitillation cocktail (containing sufficient NaOH to neutralize the TCA) was added and the solutions mixed by vigorous shaking (300-400 rpm) for 5 minutes at room temperature.

CNC(=O)CCn1c(=O)c(-c2ccc(OC)cc2)nc2ccc(NCc3cccc(C(F)(F)F)c3)nc21 [compound 19, 3-(2-(4-methoxyphenyl)-3-oxo-6-(3-(trifluoromethyl)benzylamino)pyrido[2,3-b]pyrazin-4(3H)-yl)-N-methylpropanamide]
IC50: 0.36 µM

COc1ccc(-c2nc3ccc(NCc4ccc(Cl)c(Cl)c4)nc3n(CCNC(=O)COC(C)=O)c2=O)cc1 [compound 33, 2-(2-(6-(3,4-dichlorobenzylamino)-2-(4-methoxyphenyl)-3-oxopyrido[2,3-b]pyrazin-4(3H)-yl)ethylamino)-2-oxoethyl acetate]
IC50: 0.12 µM

Cc1nc2ccc(NCc3cccc(C(F)(F)F)c3)cc2n(CCNC(=O)CCO)c1=O [compound 49, 3-hydroxy-N-(2-(3-methyl-2-oxo-7-(3-(trifluoromethyl)benzylamino)quinoxalin-1(2H)-yl)ethyl)propanamide]
IC50: 1.1 µM

COc1ccc(-c2nc3ccc(NCCc4ccc(Cl)cc4)cc3n(CCNC(C)=O)c2=O)cc1 [compound 58, N-(2-(7-(4-chlorophenethylamino)-3-(4-methoxyphenyl)-2-oxoquinoxalin-1(2H)-yl)ethyl)acetamide]
IC50: 0.082 µM

N-(2-(6-(2-chlorobenzylamino)-2-(4-methoxyphenyl)-3-oxopyrido[2,3-b]pyrazin-4(3H)-yl)ethyl)acetamide [compound 1]
IC50: 4.1 µM

N-(2-(3-(4-methoxyphenyl)-7-(3-methylbenzylamino)-2-oxoquinoxalin-1(2H)-yl)ethyl)acetamide [compound 56]
IC50: 0.018 µM

2,3-dihydroxy-N-(2-(3-methyl-2-oxo-7-(3-(trifluoromethyl)benzylamino)quinoxalin-1(2H)-yl)ethyl)propanamide [compound 52]
IC50: 0.36 µM

COc1ccc(-c2nc3cc(NCc4ccc(Cl)c(Cl)c4)cnc3n(CCNC(C)=O)c2=O)cc1 [compound 42, N-(2-(7-(3,4-dichlorobenzylamino)-2-(4-methoxyphenyl)-3-oxopyrido[2,3-b]pyrazin-4(3H)-yl)ethyl)acetamide]
IC50: 2.2 µM
